Data as given in patent US20210380606A1, “5-AZAINDAZOLE DERIVATIVES AS ADENOSINE RECEPTOR ANTAGONISTS” (Merck Patent GmbH, priority 2018, published 2021).

Columns and labels:
human A2B receptors = molecular target: T1, human A2B receptors (Homo sapiens, UniProt P29275); experiment: Functional human A2B receptor activity, recombinant HEK293 cells, cAMP (HTRF); type: cell-based; details: read-out: A2B (Category)
T1 construct: expressed in transfected cells; host or cells: HEK293
T1 sequence (P29275 1-332): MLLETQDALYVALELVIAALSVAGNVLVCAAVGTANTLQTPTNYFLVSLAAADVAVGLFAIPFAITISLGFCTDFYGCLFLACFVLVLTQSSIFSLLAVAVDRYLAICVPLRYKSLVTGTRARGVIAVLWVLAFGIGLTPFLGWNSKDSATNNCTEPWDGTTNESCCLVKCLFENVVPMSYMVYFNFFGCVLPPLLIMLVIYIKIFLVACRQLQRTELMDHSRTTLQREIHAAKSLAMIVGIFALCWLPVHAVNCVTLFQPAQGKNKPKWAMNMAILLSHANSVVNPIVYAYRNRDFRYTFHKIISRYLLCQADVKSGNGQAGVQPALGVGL
Procedure, shortened: (§1)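 Read-out is cellular cAMP measured by HTRF, added once a 15 min incubation had ended. cAMP reflects adenosine receptor signalling as the second messenger.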

human A2A receptors = molecular target: T2, human A2A receptors (Homo sapiens, UniProt P29274); experiment: Functional human A2A receptor activity, recombinant HEK293 cells, cAMP (HTRF); type: cell-based; details: read-out: A2A (Category)
T2 construct: expressed in transfected cells; host or cells: HEK293
Procedure, shortened: as §1

T2 sequence (P29274 whole entry): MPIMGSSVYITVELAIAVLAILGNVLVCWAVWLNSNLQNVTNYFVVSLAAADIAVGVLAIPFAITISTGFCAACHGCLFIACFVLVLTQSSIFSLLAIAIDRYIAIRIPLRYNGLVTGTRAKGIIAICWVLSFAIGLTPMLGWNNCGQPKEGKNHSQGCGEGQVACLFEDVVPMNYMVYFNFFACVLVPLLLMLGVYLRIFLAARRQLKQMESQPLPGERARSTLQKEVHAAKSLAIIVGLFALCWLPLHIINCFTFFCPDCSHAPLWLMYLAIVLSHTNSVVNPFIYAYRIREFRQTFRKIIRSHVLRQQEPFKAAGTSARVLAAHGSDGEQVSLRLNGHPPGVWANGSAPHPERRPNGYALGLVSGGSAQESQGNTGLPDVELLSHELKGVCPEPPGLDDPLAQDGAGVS

Row | IC50 (human A2B receptors) [nM] | IC50 (human A2A receptors) [nM] | SMILES
1 | < 1000 | < 100 | CS(=O)(=O)Cn1nc(-c2cnc3c(F)cc(F)cn23)c2cnc(C(=O)N3CC4CCC(C3)O4)cc21 [Compound 27, [3-(6,8-Difluoro-imidazo[1,2-a]pyridin-3-yl)-1-methanesulfonylmethyl-1H-pyrazolo[4,3 c]pyridin-6-yl]-(8-oxa-3-aza-bicyclo[3.2.1]oct-3-yl)-methanone]
2 | < 1000 | < 100 | O=C(c1cc2c(cn1)c(-c1cnc3c(F)cc(F)cn13)nn2CC(F)(F)F)N1CCC(F)(F)CC1 [Compound 146, [3-(6,8-Difluoro-imidazo[1,2-a]pyridin-3-yl)-1-(2,2,2-trifluoro-ethyl)-1H-pyrazolo[4,3-c]pyridin-6-yl]-(4,4-difluoro-piperidin-1-yl)-methanone]
3 | < 1000 | < 100 | O=C(c1cc2c(cn1)c(-c1cnc3c(F)cc(F)cn13)nn2CC1CC1)N1CCCOCC1 [Compound 9, [1-Cyclopropylmethyl-3-(6,8-difluoro-imidazo[1,2-a]pyridin-3-yl)-1H-pyrazolo[4,3-c]pyridin-6-yl]-1,4-oxazepan-4-yl-methanone]
4 | < 1000 | < 100 | CC1(O)CCN(C(=O)c2cc3c(cn2)c(-c2coc4ccccc24)nn3CS(C)(=O)=O)CC1 [Compound 32, (3-Benzofuran-3-yl-1-methanesulfonylmethyl-1H-pyrazolo[4,3-c]pyridin-6-yl)-(4-hydroxy-4-methyl-piperidin-1-yl)-methanone]
5 | < 1000 | < 100 | O=C(c1cc2c(cn1)c(-c1cnc3ccccn13)nn2CC(F)(F)F)N1CCCCCC1 [Compound 55, Azepan-1-yl-[3-imidazo[1,2-a]pyridin-3-yl-1-(2,2,2-trifluoro-ethyl)-1H-pyrazolo[4,3-c]pyridin-6-yl]-methanone]
6 | < 100 | < 100 | O=C(c1cc2c(cn1)c(-c1coc3ccccc13)nn2CC(F)(F)F)N1CCOCC(F)C1 (stereo not shown) [Compound 230, [3-(benzofuran-3-yl)-1-(2,2,2-trifluoroethyl)pyrazolo[4,3-c]pyridin-6-yl]-[6-fluoro-1,4-oxazepan-4-yl]methanone]
7 | < 100 | < 100 | [2H]C1([2H])CCOCCN1C(=O)c1cc2c(cn1)c(-c1cnc3c(F)cc(F)cn13)nn2CC(F)(F)F [Compound 190, [3-(6,8-Difluoro-imidazo[1,2-a]pyridin-3-yl)-1-(2,2,2-trifluoro-ethyl)-1H-pyrazolo[4,3-c]pyridin-6-yl]-1,4-oxazepan-5,5-dideuterio-4-yl-methanone]
8 | < 100 | < 100 | CC1(O)C2CCC1CN(C(=O)c1cc3c(cn1)c(-c1cnc4c(F)cc(F)cn14)nn3CS(C)(=O)=O)C2 (stereo not drawn) [Compound 24, [3-(6,8-Difluoro-imidazo[1,2-a]pyridin-3-yl)-1-methanesulfonylmethyl-1H-pyrazolo[4,3-c]pyridin-6-yl]-(8-endo-hydroxy-8-exo-methyl-3-aza-bicyclo[3.2.1]oct-3-yl)-methanone]
9 | < 1000 | < 100 | Cc1ccc2occ(-c3nn(CC(F)(F)F)c4cc(C(=O)N5CCCOCC5)ncc34)c2c1 [Compound 125, [3-(5-methylbenzofuran-3-yl)-1-(2,2,2-trifluoroethyl)pyrazolo[4,3-c]pyridin-6-yl]-(1,4-oxazepan-4-yl)methanone]
10 | < 100 | < 100 | CC1(O)CCN(C(=O)c2cc3c(cn2)c(-c2coc4ccc(F)cc24)nn3CC(F)(F)F)CC1 [Compound 116, [3-(5-fluorobenzofuran-3-yl)-1-(2,2,2-trifluoroethyl)pyrazolo[4,3-c]pyridin-6-yl]-(4-hydroxy-4-methyl-1-piperidyl)methanone]
11 | < 1000 | < 100 | O=C(c1cc2c(cn1)c(-n1cnc3ccccc31)nn2CC(F)(F)F)N1CCCOCC1 [Compound 251, [3-(benzimidazol-1-yl)-1-(2,2,2-trifluoroethyl)pyrazolo[4,3-c]pyridin-6-yl]-(1,4-oxazepan-4-yl)methanone]
12 | < 100 | < 100 | O=C(c1cc2c(cn1)c(-c1cnc3c(F)cc(F)cn13)nn2CC(F)(F)F)N1CC2CCC(C2)C1 [Compound 139, (3-Aza-bicyclo[3.2.1]oct-3-yl)-[3-(6,8-difluoro-imidazo[1,2-a]pyridin-3-yl)-1-(2,2,2-trifluoro-ethyl)-1H-pyrazolo[4,3-c]pyridin-6-yl]-methanone]
13 | < 100 | < 100 | O=C(c1cc2c(cn1)c(-c1cnn3ccccc13)nn2CC(F)(F)F)N1CC2CCC(C2)C1 [Compound 102, (3-Aza-bicyclo[3.2.1]oct-3-yl)-[3-pyrazolo[1,5-a]pyridin-3-yl-1-(2,2,2-trifluoro-ethyl)-1H-pyrazolo[4,3-c]pyridin-6-yl]-methanone]
14 | < 1000 | < 100 | CC(C)N(C(=O)c1cc2c(cn1)c(-c1coc3ccccc13)nn2CC(F)(F)F)C(C)C [Compound 233, 3-(benzofuran-3-yl)-N,N-diisopropyl-1-(2,2,2-trifluoroethyl)pyrazolo[4,3-c]pyridine-6-carboxamide]
15 | < 100 | < 100 | O=C(c1cc2c(cn1)c(-c1c[nH]c3ccccc13)nn2CC(F)(F)F)N1CCCCCC1 [Compound 91, Azepan-1-yl-[3-(1H-indol-3-yl)-1-(2,2,2-trifluoro-ethyl)-1H-pyrazolo[4,3-c]pyridin-6-yl]-methanone]
16 | < 1000 | < 100 | O=C(c1cc2c(cn1)c(-c1cnc3c(F)cc(F)cn13)nn2CC(F)(F)F)N1CCC(C(F)F)CC1 [Compound 173, [3-(6,8-Difluoro-imidazo[1,2-a]pyridin-3-yl)-1-(2,2,2-trifluoro-ethyl)-1H-pyrazolo[4,3-c]pyridin-6-yl]-(4-difluoromethyl-piperidin-1-yl)-methanone]
17 | < 1000 | < 100 | CCCn1nc(-c2cnc3ccc(F)cn23)c2cnc(C(=O)N3CCCCCC3)cc21 [Compound 5, Azepan-1-yl-[3-(6-fluoro-imidazo[1,2-a]pyridin-3-yl)-1-propyl-1H-pyrazolo[4,3-c]pyridin-6-yl]-methanone]
18 | < 1000 | < 100 | COCC1CCCN1C(=O)c1cc2c(cn1)c(-c1coc3ccccc13)nn2CC(F)(F)F (stereo not shown) [Compound 215, [3-Benzofuran-3-yl-1-(2,2,2-trifluoro-ethyl)-1H-pyrazolo[4,3-c]pyridin-6-yl]-(2-methoxymethyl-pyrrolidin-1-yl)-methanone]
19 | < 1000 | < 100 | C[C@]1(O)[C@@H]2CC[C@H]1CN(C(=O)c1cc3c(cn1)c(-c1coc4ccccc14)nn3CC(F)(F)F)C2 [Compound 212, [3-Benzofuran-3-yl-1-(2,2,2-trifluoro-ethyl)-1H-pyrazolo[4,3-c]pyridin-6-yl]-(8-endo-hydroxy-8-exo-methyl-3-aza-bicyclo[3.2.1]oct-3-yl)-methanone]

Row | SMILES | IC50 (human A2B receptors) [nM] | IC50 (human A2A receptors) [nM]
20 | O=C(c1cc2c(cn1)c(-c1coc3ccccc13)nn2CC(F)(F)F)N1[C@@H]2CC[C@H]1C[C@@H](O)C2 [Compound 209, [3-Benzofuran-3-yl-1-(2,2,2-trifluoro-ethyl)-1H-pyrazolo[4,3-c]pyridin-6-yl]-(3-endo-hydroxy-8-aza-bicyclo[3.2.1]oct-8-yl)-methanone] | < 100 | < 100
